Values of other authors, collected in patent US20090221462A1, “Fragrance compositions” (priority 2005, published 2009).

Conditions: at 25° C.

pKa (cis) (cis isomer)	Structure (SMILES)	pKa
3.89	O=C(O)C=Cc1ccccc1 [cinnamic acid]	
	O=C(O)Cc1ccccc1 [phenylacetic acid]	4.28
